Experimental data as given in patent publication US7695426B2, “Methods for enhancing viability” (Biological Resources Pty Ltd, priority 2003, dated 2010).

Key:
[1] = test system: 2-cell embryos; assay: Intracellular calcium response of embryos to exogenous PAF; assay type: cell-based, mouse; conditions: IVF embryos in comparison to fresh and ISF embryos
Description: Mammalian embryos express a receptor for PAF, and activation of this receptor elicits a transient increase in the embryo's intracellular calcium concentration (Emerson et al., 2000, Journal of Biological Chemistry 275, 21905-21913; Lu et al., 2003, Biology of Reproduction 69, 106-116).
Mouse embryos were incubated with exogenous PAF and the intracellular Ca^2+ concentration was determined as described by Emerson et al. (2000). Embryos tested were: (i) those fertilized in the reproductive tract and collected fresh from the reproductive tract (fresh); (ii) embryos produced by IVF and cultured in vitro (IVF); and (iii) embryos fertilized in the reproductive tract and cultured in vitro (ISF). […] This reduced signaling correlated with poor development of the embryos in vitro.

[2] = test system: mouse embryos; assay: Co-treatment of embryos in vitro with PAF and PFT-α; assay type: cell-based; conditions: zygotes cultured 96 h; 10 nM PAF, 10 μM PFT-α or both
[3] = test system: p53 mRNA; assay: RT-PCR of p53 mRNA in embryos incubated in α-amanitin; assay type: cell-based, mouse
Text: RT-PCR was used to compare the expression of p53 mRNA in fresh p53+/+ mouse embryos (embryos fertilised and grown in the reproductive tract) and IVF mouse embryos. For IVF embryos, the model uses a graded range of stress induced by IVF and culture under conditions of increasing growth factor deprivation. Primers were designed (5′-GGAGTCTTCCAGTGTGATGAT, 3′-GGG ACA GCC MG TCT GTT ATG) that successfully produced an RT-PCR product of the correct size (429 bp) and sequence (SUPAMAC) for the p53 gene. Groups of 5 embryos, oocytes or sperm were pooled. mRNA was extracted and RT-PCR performed.
p53 product was detected in oocytes, zygotes, 8-cell, morulae and blastocyst stage mouse embryos collected from the reproductive tract but not in epididymal sperm. In 2-cell embryos detection was variable. […] Quantitative RT-PCR of p53 was performed to compare expression of p53 mRNA in fresh and IVF embryos. Equivalent levels of RNA were found in the oocyte, zygote, morulae and blastocyst of fresh embryos; the levels were 50-70% lower in late 2-cell embryos than in other development stages (data not shown).

[4] = test system: mouse embryos; assay: Culture of mouse zygotes (IVF or ISF) with PFT-α as media supplement; assay type: cell-based
Description: (§1) Mouse IVF: Females superovulated by 5 IU pregnant mare serum gonadotrophin followed 48 h later by 5 IU human chorionic gonadotrophin. Oocytes were collected 13-15 h after hCG and washed. Epididymal sperm collected from the epididymides of male mice (14-35 weeks old) of proven fertility is immediately placed into 1 ml of medium. Sperm were allowed to disperse for 10 min at 37° C. and were then added to the oocytes at 0.1×10^6/ml. Fertilisation was performed in a final volume of 1 ml of medium. Oocytes and sperm were cultured together for 5 h at 37° C. in 5% CO2 in air. The oocytes were then retrieved, washed in Hepes-buffered HTF and their fertilisation status assessed by microscopic detection of pronuclei and polar bodies. Fertilised oocytes were transferred to drops of modified HTF medium under mineral oil and their development status assessed each 24 h.
A recently developed selective inhibitor of p53, pifithrin-α (PFTα [2-(2-imino-4,5,6,7-tetrahydrobenzothiazol-3-yl)-1-p-tolylethanone], Sigma-Aldrich), is a small molecule that reversibly blocks p53-dependent transcriptional activation and apoptosis (Komarov et al., 1999, Science 285, 1733-1737). PFT-α was prepared initially by solubilising to a concentration of 10 mM in dimethylsolfoxide and diluted to working concentrations.
Zygotes were produced by either fertilization in vitro (IVF) or fertilisation in situ (ISF) and cultured for 96 hours in modified HTFM medium individually in […] drops. PFT-α was added as a media supplement over the dose range […]. The proportion of embryos developing to the blastocyst stage (FIG. 3A), the number of cells per normal blastocyst and the proportion of cells undergoing apoptosis (FIG. 3B), were assessed.

[5] = test system: sperm and oocytes; assay: Treatment of mouse gametes with PFT-α during capacitation and fertilisation in vitro; assay type: cell-based
Description: as §1
PFT-α preparation, IVF and embryo culture was as previously described. The study used F1 (C57Bl6j×CBAj) males and females. PFT-α was added to sperm during its capacitation and during the process of fertilisation in vitro.
4-5 h after the addition of sperm to oocytes, the oocytes were washed free of sperm and PFT-α. They were examined for the presence of 2 pronuclei as evidence of successful fertilisation. Successfully fertilised oocytes were placed in culture in 10 μL of modified HTF media, 1 zygote per 10 μL drop. They were culture for 120 h and the proportion forming morphologically normal blastocysts were recorded. The blastocysts were fixed in 2% formaldehyde and stained with 5 μG Hoechst stain/ml. […]
The effect of dose of PFT-A on the proportion of oocytes fertilised, the proportion of zygotes that developed to morphological blastocyst and the number of cells in each blastocysts were recorded and are shown in FIGS. 4A, B and C respectively. The effect of PFT-A dose was assessed using the SPSS statistical package. The fertilisation rate and development rate were assessed using binary logistic regression analysis while cell numbers were assessed by univariate analysis using the general linear model.

[6] = test system: bovine sperm; assay: Treatment of bovine sperm with PFT-α before insemination, blastocyst formation; assay type: cell-based; conditions: bovine sperm incubated 1 h with 0.3-3 μM PFT-α before insemination; Day 7; compared to control
Description: All embryo manipulations were performed at 39° C. except for oocyte harvesting and activation which was performed at room temperature. All procedures were performed in 4-well Nunc dishes in Tissue Culture Medium 199 (TCM-199) supplemented with HEPES (TCM-H TCM-199; Gibco™ BRL/Life Technologies, Melbourne, Victoria, Australia) without mineral oil overlay, unless otherwise indicated.
Bovine ovaries collected from 2 different local slaughterhouse, transported at 30-35° C. to the laboratory and washed on 39° C. physiologic saline (0.9% NaCl; Baxter Healthcare Pty., Ltd., NSW, Australia). Ovarian antral follicles (2-8 mm) were aspirated using an 18-gauge needle and collected into TCM-H with 30 IU ml^−1 heparin (Pharmacia & Upjohn Pty., Ltd., Perth, Wash., Australia) and 2% gamma radiated fetal bovine serum (FBS; JRH Biosciences Pty., Ltd., Melbourne, Victoria, Australia). Cumulus oocyte complexes (COCs) showing an even cytoplasm and surrounded by at least three layers of compact cumulus cells were collected from the follicular fluid. […]
Frozen/thawed semen from an elite bull was placed on a Percoll gradient and centrifuged at 600×g for 20 minutes. The top layers were removed and the sperm concentration and motility of the pellet determined. […]
The proportion of blastocysts were determined on Day 7 (Day 0=fertilization). […]

[7] = test system: mouse embryos; assay: Combined treatment of IGF-II and PFT-α on embryo development in vitro; assay type: cell-based; conditions: IVF zygotes cultured 96 h, 10 ng/ml IGF-II, 1 μM PFT-α, or both; for Cells/blastocyst: control 23 ± 4; for % blastocyst: control 31
Description: The IGF-II used was human recombinant insulin-like growth factor-II (expressed in E. Coli) (Sigma Chemical Co.), reconstituted with a minimal volume of 0.1M acetic acid and immediately diluted with modified-HTF to a concentration of 50 μg/ml. Aliquots were frozen at −70° C. Upon thawing, aliquots were serially diluted with modified-HTF.
Zygotes produced by IVF from F1 crosses were prepared and cultured as described above, with 1 embryo per […] drop of media. Zygotes were cultured for 96 h in modified HTFM medium individually in 10 μl drops. The proportion of embryos developing to morphologically normal blastocysts, the number of cells in each blastocyst and the number of apoptotic cells per blastocyst were assessed in media containing 10 ng/ml IGF-II, 1 μM PFT-α, or IGF-II+PFT-α.

[8] = gametes treated with PFT-α, zygotes cultured 120 h, P<0.05

1 hexadecyl/octadecyl-2-acetyl-sn-glyceryl-3-phosphocholine [PAF]
proportion of 2-cell IVF embryos that responded to exogenous PAF (intracellular calcium) [1]: substantially reduced | embryo viability as proportion of embryos that developed to the blastocyst stage [2]: increase in embryo viability

CC[C@H](C)[C@@H]1NC(=O)CNC(=O)[C@@H]2Cc3c([nH]c4cc(O)ccc34)[S+]([O-])C[C@@H](NC(=O)CNC1=O)C(=O)N[C@@H](CC(N)=O)C(=O)N1C[C@H](O)C[C@H]1C(=O)N[C@@H]([C@@H](C)[C@@H](O)CO)C(=O)N2 (stereo in doubt) [α-amanitin]
p53 mRNA in embryos after incubation from the 2-cell stage ([3]; 2-cell embryos incubated in α-amanitin, after 24 h): p53 mRNA negative | qualitative expression of p53 RNA in zygotes ([3]; zygotes incubated in α-amanitin): no effect

Cc1ccc(C(=O)Cn2c3c(sc2=N)CCCC3)cc1 [PFT-α, 2-(2-imino-4,5,6,7-tetrahydrobenzothiazol-3-yl)-1-p-tolylethanone]
proportion of IVF embryos that developed to the blastocyst stage ([4]; IVF zygotes cultured 96 h individually, PFT-α dose range 0.1-20 μM): significant quadratic effect | embryo survival ([4]; between 0.1 and 20 μM added to embryos in culture): significant effect on increasing embryo survival | number of cells per normal blastocyst ([4]; both ISF and IVF zygotes, cultured 96 h, PFT-α dose range 0.1-20 μM): significant improvement | number of cells undergoing apoptosis ([4]; both ISF and IVF zygotes, cultured 96 h, PFT-α dose range 0.1-20 M (so in the source)): significant decrease | fertilisation rate (proportion of oocytes fertilised) ([5]; PFT-α present during sperm capacitation and IVF, P<0.01): dose-dependent increase | mean number of cells present in each embryo (blastocyst) [5, 8]: dose-dependent significant increase | proportion of zygotes that developed to the blastocyst stage [5, 8]: further dose-dependent increase | proportion of resulting embryos that developed to morphological blastocysts [6]: significant positive effect | embryo viability as proportion of embryos that developed to the blastocyst stage [2]: increase in embryo viability | Cells/blastocyst [7]: 32 ± 4 | % blastocyst [7]: 44%

IGF-II: human recombinant insulin-like growth factor-II (expressed in E. Coli), Sigma Chemical Co.
Cells/blastocyst [7]: 29 ± 2 | % blastocyst [7]: 42%
